# Values joined by “and” are separate entries in the source; they are usually repeats but may differ in a detail not shown here. Equal values may be shown once.
# B1: rat Kir6.2^Q52R (natural protein)
# chain: MLSRKGIIPEEYVLTRLAEDPTEPRYRTRERRARFVSKKGNCNVAHKNIRERGRFLQDVFTTLVDLKWPHTLLIFTMSFLCSWLLFAMVWWLIAFAHGDLAPGEGTNVPCVTSIHSFSSAFLFSIEVQVTIGFGGRMVTEECPLAILILIVQNIVGLMINAIMLGCIFMKTAQAHRRAETLIFSKHAVITLRHGRLCFMLRVGDLRKSMIISATIHMQVVRKTTSPEGEVVPLHQVDIPMENGVGGNSIFLVAPLIIYHVIDSNSPLYDLAPSDLHHHQDLEIIVILEGVVETTGITTQARTSYLADEILWGQRFVPIVAEEDGRYSVDYSKFGNTVKVPTPLCTARQLDEDRSLLDALTLASSRGPLRKRSVAVAKAKPKFSISPDSLS
# notes: Kir6.2, rat, with the neonatal diabetes mutation Q52R; the models hold residues 32-352 (N-terminal 31 residues and the tail beyond 352 not resolved); Four Kir6.2 subunits form the pore of the channel with four SUR1 subunits; the gene was cloned into pShuttle/AdEasy; PDB 6BAA (WT channel) was the starting model; also called Kir6.2 (pore-forming subunit of the SUR1/Kir6.2^Q52R KATP channel); …
# Legend:
# [1] = test system: KATP channels; design: method as in PMID 12525701; details: cited from earlier work
# [2] = target: His175 (UniProt position 175, KTAQAHRRAET); test: electrophysiology; details: cited from earlier work
# [3] = target: T1, SUR1^K134A/Kir6.2^R176A double mutant channel (UniProt P70673+Q09427, K134A/R176A); test: PIP2 response, inside-out patch-clamp recording, COSm6 cells; assay type: biochemical, rat Kir6.2, hamster SUR1; details: 5 μM PIP2; −50 mV; mean (± SEM)
# T1 construct: expressed in transfected cells; host or cells: COSm6
# Experimental: (§1) Fig. 3 Functional testing of the two PIP2 binding sites. a Representative inside-out patch-clamp recordings (−50mV, inward currents shown as upward deflections; the red dashed line indicates 0 currents) of various channels: WT, SUR1^K134A (the non-canonical PIP2 binding site mutation)/Kir6.2, SUR1/Kir6.2^R176A (the canonical PIP2 binding site mutation), and SUR1^K134A/Kir6.2^R176A double mutant, exposed alternately in 5 μM PIP2, 0.1 mM ATP, and 1 mM ATP as indicated by the bars above the recordings. The brief exposures to 0.1 mM and 1 mM ATP between PIP2 exposures were used to monitor the gradual decrease in ATP sensitivity as channel opening became increasingly stabilized by PIP2. b Group data of recordings shown in (a) comparing initial currents in K-INT at the time of patch excision. For each group, mean ± SEM of the data points are shown (WT, n = 12; SUR1^K134A, n = 6; Kir6.2^R176A, n = 7; SUR1^K134A/Kir6.2^R176A, n = 6 cells). Statistical significance was tested between mutants and WT or between double and single mutants using two-tailed unpaired t test with Welch’s correction, alpha = 0.05. *SUR1^K134A vs WT, p = 0.0468; ** Kir6.2^R176A vs WT, p = 0.0016; **SUR1^K134A/Kir6.2^R176A vs WT, p = 0.0014; ^#SUR1^K134A/Kir6.2^R176A vs SUR1^K134A, p = 0.0440; ^$SUR1^K134A/Kir6.2^R176A vs Kir6.2^R176A, p = 0.0411. Note the y-axis in this panel and panel (c) is in log scale for better visualization. c Comparison of the maximum fold-increase in currents after PIP2 exposure in different channels. For each group, mean ± SEM of the data points are shown (WT, n = 12; SUR1^K134A, n = 6; Kir6.2^R176A, n = 7; SUR1^K134A/Kir6.2^R176A, n = 5 cells). Statistical significance was tested between mutants and WT or between double and single mutants using two-tailed unpaired t test, alpha = 0.05. ***SUR1^K134A vs WT, p < 0.0001; ** Kir6.2^R176A vs WT, p = 0.0029; **SUR1^K134A/Kir6.2^R176A vs WT, p = 0.0012; ^#SUR1^K134A/Kir6.2^R176A vs SUR1^K134A, p = 0.0247; ^$SUR1^K134A/Kir6.2^R176A vs Kir6.2^R176A, p = 0.0353. d Comparison of the time of exposure in PIP2 for currents to reach maximum in different channels. For each group, mean ± SEM of the data points are shown (WT, n = 12; SUR1^K134A, n = 6; Kir6.2^R176A, n = 7; SUR1^K134A/Kir6.2^R176A, n = 6 cells). Statistical significance was tested between mutants and WT or between double and single mutants using two-tailed unpaired t test, alpha = 0.05. ***SUR1^K134A vs WT, p < 0.0001; ***Kir6.2^R176A vs WT, p = 0.0002; ***SUR1^K134A/Kir6.2^R176A vs WT, p < 0.0001; ^##SUR1^K134A/Kir6.2^R176A vs SUR1^K134A, p = 0.0071.
# (§2) For electrophysiology experiments, COSm6 cells were co-transfected with various combination of WT or mutant SUR1 and Kir6.2 cDNAs (SUR1 in pECE and Kir6.2 in pCDNA3) along with the cDNA for the Green Fluorescent Protein (to facilitate identification of transfected cells) using FuGENE® 6 (Promega). Mutant SUR1 and Kir6.2 were constructed using QuikChange (mutagenesis primers are shown in Supplementary Table 2). Cells were plated onto glass coverslips 24 h after transfection and recordings made in the following two days. All experiments were performed at room temperature. Micropipettes were pulled from non-heparinized Kimble glass (Fisher Scientific) on a horizontal puller (Sutter Instrument). Electrode resistance was typically 1-2 MΩ when filled with K-INT solution containing 140 mM KCl, 10 mM K-HEPES, 1 mM K-EGTA, 1 mM EDTA, pH 7.3. ATP was added as the potassium salt. Inside-out patches of cells bathed in K-INT were voltage-clamped with an Axopatch 1D amplifier (Axon Instruments). ATP or porcine brain PIP2 (Avanti Polar Lipids; prepared in K-INT and bath sonicated in ice water for 30 min before use) were added to K-INT as specified in the figure legend. All currents were measured at a membrane potential of −50 mV (pipette voltage = +50 mV). Data were analyzed using pCLAMP10 software (Axon Instrument). Off-line analysis was performed using Clampfit and GraphPad. […]
# [4] = target: T2, SUR1/Kir6.2^R176A channel (UniProt P70673+Q09427, R176A); test: as above; assay type: biochemical, rat Kir6.2, hamster SUR1; details: 5 μM PIP2; −50 mV; mean (± SEM)
# T2 construct: expressed in transfected cells; host or cells: COSm6
# Experimental: as §1, §2
# [5] = target: T3, SUR1^K134A/Kir6.2 channel (UniProt P70673+Q09427, K134A); test: as above; assay type: biochemical, rat Kir6.2, hamster SUR1; details: 5 μM PIP2; −50 mV; mean (± SEM)
# T3 construct: expressed in transfected cells; host or cells: COSm6
# Experimental: as §1, §2
# [6] = target: T4, WT (SUR1/Kir6.2) KATP channels (UniProt P70673+Q09427); test: as above; assay type: biochemical, rat Kir6.2, hamster SUR1; details: 5 μM PIP2
# T4 construct: expressed in transfected cells; host or cells: COSm6
# Experimental: as §1, §2
# [7] = target: the molecule itself; test: cryo-EM structure; SUR1/Kir6.2^Q52R channel co-expressed in COSm6 cells; membranes enriched with brain PIP2 (1 mg/mL) before solubilisation in digitonin; purified via the N-terminal FLAG tag on SUR1; 0.2 M NaCl, 0.1 M KCl, 0.05 M HEPES pH 7.5, 0.05% digitonin; no ATP or ADP added; graphene oxide-coated grids
# T1 sequence (Q09427 whole entry K134A): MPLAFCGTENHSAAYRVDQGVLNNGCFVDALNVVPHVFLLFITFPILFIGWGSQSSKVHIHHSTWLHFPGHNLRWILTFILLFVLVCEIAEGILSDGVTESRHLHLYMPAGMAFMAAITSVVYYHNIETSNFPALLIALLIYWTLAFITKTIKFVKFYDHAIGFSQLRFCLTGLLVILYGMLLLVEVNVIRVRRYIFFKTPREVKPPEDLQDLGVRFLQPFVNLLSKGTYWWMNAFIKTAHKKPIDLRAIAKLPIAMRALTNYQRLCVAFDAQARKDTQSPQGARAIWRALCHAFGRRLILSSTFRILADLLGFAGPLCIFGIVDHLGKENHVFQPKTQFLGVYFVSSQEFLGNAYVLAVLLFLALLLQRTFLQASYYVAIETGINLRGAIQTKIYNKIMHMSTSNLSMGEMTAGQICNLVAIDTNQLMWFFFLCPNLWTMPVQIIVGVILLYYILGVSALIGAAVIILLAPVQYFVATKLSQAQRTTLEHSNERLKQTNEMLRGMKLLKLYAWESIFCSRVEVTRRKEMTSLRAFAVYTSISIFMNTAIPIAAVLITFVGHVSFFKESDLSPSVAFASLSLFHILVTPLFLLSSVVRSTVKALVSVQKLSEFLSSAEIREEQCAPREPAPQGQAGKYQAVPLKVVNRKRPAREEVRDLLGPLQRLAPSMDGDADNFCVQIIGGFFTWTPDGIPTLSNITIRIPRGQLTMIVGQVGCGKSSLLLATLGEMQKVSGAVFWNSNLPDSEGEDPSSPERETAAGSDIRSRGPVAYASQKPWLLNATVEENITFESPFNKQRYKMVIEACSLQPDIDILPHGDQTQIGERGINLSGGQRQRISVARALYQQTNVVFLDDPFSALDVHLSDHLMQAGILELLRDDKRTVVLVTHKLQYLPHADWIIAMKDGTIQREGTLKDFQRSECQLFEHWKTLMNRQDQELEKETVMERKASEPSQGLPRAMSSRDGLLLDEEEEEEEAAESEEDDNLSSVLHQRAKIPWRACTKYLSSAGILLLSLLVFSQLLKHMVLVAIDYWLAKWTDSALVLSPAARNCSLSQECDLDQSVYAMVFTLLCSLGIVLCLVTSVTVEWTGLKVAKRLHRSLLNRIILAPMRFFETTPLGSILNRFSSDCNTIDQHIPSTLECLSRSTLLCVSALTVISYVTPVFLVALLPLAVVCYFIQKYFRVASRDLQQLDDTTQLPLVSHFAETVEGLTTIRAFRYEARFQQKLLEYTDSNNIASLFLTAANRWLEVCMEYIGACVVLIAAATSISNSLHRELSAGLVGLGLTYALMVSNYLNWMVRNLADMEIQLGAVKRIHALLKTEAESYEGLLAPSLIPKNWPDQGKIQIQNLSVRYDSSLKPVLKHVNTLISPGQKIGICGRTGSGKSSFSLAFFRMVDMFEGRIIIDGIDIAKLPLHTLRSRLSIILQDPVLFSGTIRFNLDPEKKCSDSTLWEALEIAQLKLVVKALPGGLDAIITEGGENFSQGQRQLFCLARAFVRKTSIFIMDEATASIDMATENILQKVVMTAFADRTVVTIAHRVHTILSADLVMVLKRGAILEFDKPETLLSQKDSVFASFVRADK
# T1 sequence (P70673 whole entry R176A): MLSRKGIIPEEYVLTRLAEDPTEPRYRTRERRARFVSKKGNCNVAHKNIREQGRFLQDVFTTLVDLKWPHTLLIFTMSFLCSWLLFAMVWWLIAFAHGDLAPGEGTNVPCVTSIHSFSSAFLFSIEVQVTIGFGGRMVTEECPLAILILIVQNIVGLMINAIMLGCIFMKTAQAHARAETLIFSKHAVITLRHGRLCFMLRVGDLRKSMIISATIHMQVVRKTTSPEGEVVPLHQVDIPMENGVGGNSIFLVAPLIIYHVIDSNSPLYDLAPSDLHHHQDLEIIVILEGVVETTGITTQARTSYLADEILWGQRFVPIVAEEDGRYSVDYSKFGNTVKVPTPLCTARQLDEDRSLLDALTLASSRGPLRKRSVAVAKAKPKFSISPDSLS
# T3 sequence (Q09427 whole entry K134A): as the sequence (Q09427 whole entry K134A) above
# T3 sequence (P70673 whole entry): as the sequence (P70673 whole entry R176A) above, with A176R counted along it
# T4 sequence (P70673 whole entry): as the sequence (P70673 whole entry R176A) above, with A176R counted along it
# T4 sequence (Q09427 whole entry): as the sequence (Q09427 whole entry K134A) above, with A134K counted along it
# T2 sequence (Q09427 whole entry): as the sequence (Q09427 whole entry K134A) above, with A134K counted along it
# T2 sequence (P70673 whole entry R176A): as the sequence (P70673 whole entry R176A) above
molecule,measurement,setting,value
"CCCCCCCC(=O)OC[C@H](COP(=O)(O)O[C@@H]1[C@H](O)[C@H](O)[C@@H](OP(=O)(O)O)[C@H](OP(=O)(O)O)[C@H]1O)OC(=O)CCCCCCC [diC8-PIP2, diC8-PI(4,5)P2]",reversibility of channel activation,[1]; synthetic short-chain PIP2,readily reversible
"ATP-sensitive inward rectifier potassium channel Kir6.2 (pore subunit of the KATP channel) (not stated for the quoted measurement (this article's own constructs are rat Kir6.2, Rattus norvegicus, with hamster SUR1))",pKa,[2],7.16
"PI(3,4)P2",activation of KATP channels,[1],activated equally well
"PI(3,4,5)P3",activation of KATP channels,[1],activated equally well
PI(4)P,activation of KATP channels,[1],activated
"PI(4,5)P2 [PIP2]",maximum fold-increase in currents after PIP2 exposure,[3],299.65 ± 121.72 fold and 299.65 fold
same,time of exposure in PIP2 for currents to reach maximum,[3],419.33 ± 57.86 s and 419.33 s
same,maximum fold-increase in currents after PIP2 exposure,[4],48.74 ± 18.25 fold and 48.74 fold
same,time of exposure in PIP2 for currents to reach maximum,[4],298.57 ± 73.76 s and 298.57 s
same,maximum fold-increase in currents after PIP2 exposure,[5],3.96 ± 0.47 fold and 3.96 fold
same,time of exposure in PIP2 for currents to reach maximum,[5],193.83 ± 33.66 s and 193.83 s
same,PIP2 exposure until currents plateaued,[6],≤ 1 min
same,maximum fold-increase in currents after PIP2 exposure,"[6]; −50 mV, mean (± SEM)",1.45 fold
same,time of exposure in PIP2 for currents to reach maximum,"[6]; −50 mV, mean (± SEM)",33.17 ± 3.18 s and 33.17 s
same,activation of KATP channels,[1],activated equally well
B1,stoichiometry N,[7],4

# — publication PMC10954709, “Structure of an open KATP channel reveals tandem PIP2 binding sites mediating the Kir6.2 and SUR1 regulatory interface” (Nature Communications, 2024)
